# Experiments:
# KMS-11 tumor = experiment: Anti-tumor activity in human myeloma KMS-11 tumor-bearing NOD SCID mice (subcutaneous xenograft); format: in vivo
# Source text: Evaluation of the Anti-Tumor Activity of Cpd. […] Based on the tumor volume and body weight, mice were assigned to respective groups such that the average starting tumor size and body weight was the same for each treatment group. […] The tumor cells were routinely subcultured before confluence, not to exceed 4-5 passages. The cells growing in an exponential growth phase were harvested and counted for tumor inoculation. […] The treatment was started when the mean tumor size reached 118 mm^3. Mice were then assigned to groups such that the mean tumor volume was the same for each treatment group and time point. […] Tumor Measurements The measurement of tumor size was conducted twice weekly with a caliper and the tumor volume (mm3) is estimated using the formula: TV=a×b×b/2, where “a” and “b” are long and short diameters of a tumor, respectively. The TVs are used for calculation of the tumor growth inhibition and tumor growth delay. […] The “[…]” and “TVinitial” are the mean tumor volumes on the final day and initial day of dosing. After take down 5 mice of G2 G5 post the final dosing, the remaining mice were maintained for monitoring tumor outgrowth twice weekly. […] Animals showing obvious signs of severe distress and/or pain were humanely sacrificed by carbon dioxide followed by cervical dislocation to ensure death. Samples Collection Tumor samples and plasma were collect at the indicated day. Data Acquisition and Statistical Analysis Data Acquisition: Protocol-required measurements and observations were recorded manually on appropriate forms, or directly on a computerized database. Statistical Analysis: All statistical tests were conducted, and the level of significance was set at 5% or P<0.05. The group means, standard deviation were calculated for all measurement parameters as study designed. Two-way RM ANOVA followed by Tukeys post hoc comparisons of the means. The therapeutic effects of compound as a single agent in the KMS-11 subcutaneous xenograft model were evaluated.
# KMS-34 cells = experiment: 14 day KMS-34 long term proliferation (LTP) assay; details: KMS-34, t(4;14) multiple myeloma cell line; 14-day assay; FIG. 2
# Experimental: 14 Day KMS-34 Long Term Proliferation (LTP) Assay
# Incubate plates for 96 hrs.
# The final concentration is 1 μm.
# To calculate growth for days 4, 7, 11, and 14:
# 1. Calculate the split factor for day 4 to 7, day 7 to 11, and day 11-14 The split factor is the viable cells/mL on Day X (either 4, 7, or 11) divided by the density the cells are being split back to.
# 2. For growth of cells from day 4 to 7, multiply the day 7 viable cells/mL density by the split factor from day 4.
# 4. For growth of cells from Day 11 to 14, multiply the Day 14 viable cells/mL density by the days 4, 7, and 11 split factors.
# 5. Plot growth on semi-log chart (viable cells/mL on Y axis, in log, and days on X axis).
# From 5 mM to 0.25 μm. […] Mix well by pipetting up and down.
# [1] = system: multiple myeloma cell lines (t(4;14) and non-t(4;14)); experiment: 14 day LTP assay in multiple myeloma cells; format: cell-based, human; details: FIG. 1 scatter graph
# [2] = G2, 31.25 mg/kg, p.o., BID × 28 days, PG-Day 25
smiles,measurement,setting,value
"CC(=O)N1CCN([C@H]2CCC[C@@H](NC(=O)c3cc4c(F)ccc(C)c4[nH]3)C2)CC1 [Cpd. No. 15, N-((1R,3S)-3-(4-acetylpiperazin-1-yl)cyclohexyl)-4-fluoro-7-methyl-1H-indole-2-carboxamide]",Tumor volume (Mean ± SEM),"KMS-11 tumor; G2, 31.25 mg/kg p.o. BID 28 days, PG-D1 (D 7)",119 ± 6 mm3
same,Tumor volume (Mean ± SEM),"KMS-11 tumor; G2, 31.25 mg/kg p.o. BID 28 days, PG-D4 (D 10)",225 ± 21 mm3
same,Tumor volume (Mean ± SEM),"KMS-11 tumor; G2, 31.25 mg/kg p.o. BID 28 days, PG-D7 (D 13)",271 ± 19 mm3
same,Tumor volume (Mean ± SEM),"KMS-11 tumor; G2, 31.25 mg/kg p.o. BID 28 days, PG-D11 (D 17)",408 ± 46 mm3
same,Tumor volume (Mean ± SEM),"KMS-11 tumor; G2, 31.25 mg/kg p.o. BID 28 days, PG-D14 (D 20)",478 ± 54 mm3
same,Tumor volume (Mean ± SEM),"KMS-11 tumor; G2, 31.25 mg/kg p.o. BID 28 days, PG-D18 (D 24)",609 ± 71 mm3
same,Tumor volume (Mean ± SEM),"KMS-11 tumor; G2, 31.25 mg/kg p.o. BID 28 days, PG-D21 (D 27)",686 ± 80 mm3
same,Tumor volume (Mean ± SEM),"KMS-11 tumor; G2, 31.25 mg/kg p.o. BID 28 days, PG-D25 (D 31)",763 ± 97 mm3
same,Tumor volume post the final dosing (Mean ± SEM),"KMS-11 tumor; G2, 31.25 mg/kg p.o. BID 28 days, PG-D28 (D 34)",882 ± 131 mm3
same,Tumor volume post the final dosing (Mean ± SEM),"KMS-11 tumor; G2, 31.25 mg/kg p.o. BID 28 days, PG-D32 (D 38)",1123 ± 149 mm3
same,Tumor volume post the final dosing (Mean ± SEM),"KMS-11 tumor; G2, 31.25 mg/kg p.o. BID 28 days, PG-D35 (D 41)",1499 ± 196 mm3
same,Tumor volume post the final dosing (Mean ± SEM),"KMS-11 tumor; G2, 31.25 mg/kg p.o. BID 28 days, PG-D39 (D 45)",1747 ± 243 mm3
same,Tumor Size at PG-Day 25 (Mean ± SEM),"KMS-11 tumor; G2, 31.25 mg/kg, p.o., BID × 28 days",763 ± 97 mm3
same,TGI,KMS-11 tumor; [2],74%
same,ΔT/ΔC,KMS-11 tumor; [2],26%
same,Tumor volume (Mean ± SEM),"KMS-11 tumor; G3, 62.5 mg/kg p.o. BID 28 days, PG-D1 (D 7)",117 ± 6 mm3
same,Tumor volume (Mean ± SEM),"KMS-11 tumor; G3, 62.5 mg/kg p.o. BID 28 days, PG-D4 (D 10)",178 ± 11 mm3
same,Tumor volume (Mean ± SEM),"KMS-11 tumor; G3, 62.5 mg/kg p.o. BID 28 days, PG-D7 (D 13)",216 ± 11 mm3
same,Tumor volume (Mean ± SEM),"KMS-11 tumor; G3, 62.5 mg/kg p.o. BID 28 days, PG-D11 (D 17)",231 ± 16 mm3
same,Tumor volume (Mean ± SEM),"KMS-11 tumor; G3, 62.5 mg/kg p.o. BID 28 days, PG-D14 (D 20)",184 ± 17 mm3
same,Tumor volume (Mean ± SEM),"KMS-11 tumor; G3, 62.5 mg/kg p.o. BID 28 days, PG-D18 (D 24)",176 ± 22 mm3
same,Tumor volume (Mean ± SEM),"KMS-11 tumor; G3, 62.5 mg/kg p.o. BID 28 days, PG-D21 (D 27)",129 ± 25 mm3
same,Tumor volume (Mean ± SEM),"KMS-11 tumor; G3, 62.5 mg/kg p.o. BID 28 days, PG-D25 (D 31)",115 ± 30 mm3
same,Tumor volume post the final dosing (Mean ± SEM),"KMS-11 tumor; G3, 62.5 mg/kg p.o. BID 28 days, PG-D28 (D 34)",117 ± 36 mm3
same,Tumor volume post the final dosing (Mean ± SEM),"KMS-11 tumor; G3, 62.5 mg/kg p.o. BID 28 days, PG-D32 (D 38)",65 ± 23 mm3
same,Tumor volume post the final dosing (Mean ± SEM),"KMS-11 tumor; G3, 62.5 mg/kg p.o. BID 28 days, PG-D35 (D 41)",150 ± 60 mm3
same,Tumor volume post the final dosing (Mean ± SEM),"KMS-11 tumor; G3, 62.5 mg/kg p.o. BID 28 days, PG-D39 (D 45)",309 ± 108 mm3
same,Tumor Size at PG-Day 25 (Mean ± SEM),"KMS-11 tumor; G3, 62.5 mg/kg, p.o., BID × 28 days",115 ± 30 mm3
same,ΔT/ΔC,"KMS-11 tumor; G3, 62.5 mg/kg, p.o., BID × 28 days, PG-Day 25",0%
same,Tumor volume (Mean ± SEM),"KMS-11 tumor; G4, 125 mg/kg p.o. BID 18 days then BID(3D− 4D+) 7 days, PG-D1 (D 7)",117 ± 6 mm3
same,Tumor volume (Mean ± SEM),"KMS-11 tumor; G4, 125 mg/kg p.o. BID 18 days then BID(3D− 4D+) 7 days, PG-D4 (D 10)",191 ± 11 mm3
same,Tumor volume (Mean ± SEM),"KMS-11 tumor; G4, 125 mg/kg p.o. BID 18 days then BID(3D− 4D+) 7 days, PG-D7 (D 13)",219 ± 9 mm3
same,Tumor volume (Mean ± SEM),"KMS-11 tumor; G4, 125 mg/kg p.o. BID 18 days then BID(3D− 4D+) 7 days, PG-D11 (D 17)",196 ± 11 mm3
same,Tumor volume (Mean ± SEM),"KMS-11 tumor; G4, 125 mg/kg p.o. BID 18 days then BID(3D− 4D+) 7 days, PG-D14 (D 20)",119 ± 10 mm3
same,Tumor volume (Mean ± SEM),"KMS-11 tumor; G4, 125 mg/kg p.o. BID 18 days then BID(3D− 4D+) 7 days, PG-D18 (D 24)",99 ± 16 mm3
same,Tumor volume (Mean ± SEM),"KMS-11 tumor; G4, 125 mg/kg p.o. BID 18 days then BID(3D− 4D+) 7 days, PG-D21 (D 27)",85 ± 20 mm3
same,Tumor volume (Mean ± SEM),"KMS-11 tumor; G4, 125 mg/kg p.o. BID 18 days then BID(3D− 4D+) 7 days, PG-D25 (D 31)",131 ± 39 mm3
same,Tumor volume post the final dosing (Mean ± SEM),"KMS-11 tumor; G4, 125 mg/kg p.o. BID 18 days then BID(3D− 4D+) 7 days, PG-D28 (D 34)",99 ± 20 mm3
same,Tumor volume post the final dosing (Mean ± SEM),"KMS-11 tumor; G4, 125 mg/kg p.o. BID 18 days then BID(3D− 4D+) 7 days, PG-D32 (D 38)",239 ± 68 mm3
same,Tumor volume post the final dosing (Mean ± SEM),"KMS-11 tumor; G4, 125 mg/kg p.o. BID 18 days then BID(3D− 4D+) 7 days, PG-D35 (D 41)",421 ± 108 mm3
same,Tumor volume post the final dosing (Mean ± SEM),"KMS-11 tumor; G4, 125 mg/kg p.o. BID 18 days then BID(3D− 4D+) 7 days, PG-D39 (D 45)",757 ± 215 mm3
same,Tumor Size at PG-Day 25 (Mean ± SEM),"KMS-11 tumor; G4, 125 mg/kg, p.o., BID × 18 days, BID(3D− 4D+) × 7 days",131 ± 39 mm3
same,ΔT/ΔC,"KMS-11 tumor; G4, 125 mg/kg, p.o., BID × 18 days, BID(3D− 4D+) × 7 days, PG-Day 25",1%
same,Tumor volume (Mean ± SEM),"KMS-11 tumor; G5, 175 mg/kg p.o. BID 11 days then BID(3D− 4D+) 14 days, PG-D1 (D 7)",119 ± 6 mm3
same,Tumor volume (Mean ± SEM),"KMS-11 tumor; G5, 175 mg/kg p.o. BID 11 days then BID(3D− 4D+) 14 days, PG-D4 (D 10)",192 ± 13 mm3
same,Tumor volume (Mean ± SEM),"KMS-11 tumor; G5, 175 mg/kg p.o. BID 11 days then BID(3D− 4D+) 14 days, PG-D7 (D 13)",221 ± 17 mm3
same,Tumor volume (Mean ± SEM),"KMS-11 tumor; G5, 175 mg/kg p.o. BID 11 days then BID(3D− 4D+) 14 days, PG-D11 (D 17)",199 ± 24 mm3
same,Tumor volume (Mean ± SEM),"KMS-11 tumor; G5, 175 mg/kg p.o. BID 11 days then BID(3D− 4D+) 14 days, PG-D14 (D 20)",167 ± 27 mm3
same,Tumor volume (Mean ± SEM),"KMS-11 tumor; G5, 175 mg/kg p.o. BID 11 days then BID(3D− 4D+) 14 days, PG-D18 (D 24)",189 ± 32 mm3
same,Tumor volume (Mean ± SEM),"KMS-11 tumor; G5, 175 mg/kg p.o. BID 11 days then BID(3D− 4D+) 14 days, PG-D21 (D 27)",214 ± 45 mm3
same,Tumor volume (Mean ± SEM),"KMS-11 tumor; G5, 175 mg/kg p.o. BID 11 days then BID(3D− 4D+) 14 days, PG-D25 (D 31)",225 ± 45 mm3
same,Tumor volume post the final dosing (Mean ± SEM),"KMS-11 tumor; G5, 175 mg/kg p.o. BID 11 days then BID(3D− 4D+) 14 days, PG-D28 (D 34)",269 ± 146 mm3
same,Tumor volume post the final dosing (Mean ± SEM),"KMS-11 tumor; G5, 175 mg/kg p.o. BID 11 days then BID(3D− 4D+) 14 days, PG-D32 (D 38)",589 ± 378 mm3
same,Tumor volume post the final dosing (Mean ± SEM),"KMS-11 tumor; G5, 175 mg/kg p.o. BID 11 days then BID(3D− 4D+) 14 days, PG-D35 (D 41)",732 ± 422 mm3
same,Tumor volume post the final dosing (Mean ± SEM),"KMS-11 tumor; G5, 175 mg/kg p.o. BID 11 days then BID(3D− 4D+) 14 days, PG-D39 (D 45)",1183 ± 686 mm3
same,Tumor Size at PG-Day 25 (Mean ± SEM),"KMS-11 tumor; G5, 175 mg/kg, p.o., BID × 18 days, BID(3D− 4D+) × 14 days",225 ± 45 mm3
same,ΔT/ΔC,"KMS-11 tumor; G5, 175 mg/kg, p.o., BID × 18 days, BID(3D− 4D+) × 14 days, PG-Day 25",4%
same,type of response of KMS-34 cells,KMS-34 cells,cytotoxic response
same,anti-proliferative effects in t(4;14) and non-t(4;14) multiple myeloma cell lines,[1],selective anti-proliferative effects

# — patent US12116358B2, “Substituted indoles and methods of use thereof” (EPIZYME, INC., priority 2018, dated 2024)
